Measurements from patent US20060069132A1, “Azolecarboxamide herbicides” (priority 2004, published 2006).

Experiments:
ducksalad = assay: Test B flooded paddy test; assay type: in vivo, Heteranthera limosa; details: scale 0 to 100 (0 no effect, 100 complete control)
Summary of the method: (§1)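 Treated at 2-leaf (paddy) or 1–4-leaf, 2–18 cm (postemergence); greenhouse 13–15 d; visual score vs control, 0 none to 100 complete control; dash = not tested.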

large crabgrass = assay: Test B pre-/postemergence herbicide test; assay type: in vivo, Digitaria sanguinalis
Summary of the method: (§2)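 Test chemicals in a non-phytotoxic solvent mixture with surfactant were applied preemergence to seeded species and postemergence to plants 2-18 cm tall (1- to 4-leaf stage); rice and barnyardgrass were also tested in a flooded paddy at the 2-leaf stage. Visual rating versus controls after 13-15 days in greenhouse, scale 0 (no effect) to 100 (complete control).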

pigweed = assay: Test B pre-/postemergence herbicide test; assay type: in vivo, Amaranthus retroflexus
Summary of the method: as §2

blackgrass = assay: Test B postemergence herbicide test; assay type: in vivo, Alopecurus myosuroides
Summary of the method: as §1

wheat = assay: Test B postemergence herbicide test; assay type: in vivo, Triticum aestivum; parameters: key to Wheat plant response rating: 0 = no effect, 100 = complete control
Summary of the method: (§3)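 After treating 2-leaf paddy plants or 2–18 cm postemergence plants (1 to 4 leaves) with formulated chemical, researchers kept them in a greenhouse for 13–15 days. Effects were judged visually versus controls: 0 indicates none, 100 total control.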

lambsquarters = assay: Test B pre-/postemergence herbicide test; assay type: in vivo, Chenopodium album
Summary of the method: as §2

velvetleaf = assay: Test B pre-/postemergence herbicide test; assay type: in vivo, Abutilon theophrasti
Summary of the method: as §2

barnyardgrass [1] = assay: Test B flooded paddy test; assay type: in vivo, Echinochloa crus-galli; details: scale 0 to 100 (0 no effect, 100 complete control)
Summary of the method: as §1

giant foxtail = assay: Test B pre-/postemergence herbicide test; assay type: in vivo, Setaria faberi
Summary of the method: as §2

barnyardgrass [2] = assay: Test B pre-/postemergence herbicide test; assay type: in vivo, Echinochloa crus-galli
Summary of the method: (§4)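 Herbicidal effect was judged by eye on a 0–100 scale after plants stood 13 to 15 days in the greenhouse following pre- or postemergence treatment with surfactant-containing formulations.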

wild oat = assay: Test B postemergence herbicide test; assay type: in vivo, Avena fatua
Summary of the method: as §3

cocklebur = assay: Test B pre-/postemergence herbicide test; assay type: in vivo, Xanthium strumarium
Summary of the method: as §4

rice = assay: Test B flooded paddy test; assay type: in vivo, Oryza sativa; details: scale 0 to 100 (0 no effect, 100 complete control)
Summary of the method: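 Paddy species grown to the 2-leaf stage under flooding; blackgrass sprayed postemergence at 2–18 cm (1- to 4-leaf stage). Plants kept in a greenhouse for 13 to 15 days, then visually rated against controls on 0 (no effect) to 100 (complete control).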

Surinam grass = assay: Test B pre-/postemergence herbicide test; assay type: in vivo, Urochloa decumbens
Summary of the method: as §2

[3] = test system: small flower umbrella sedge; assay: Test B flooded paddy test; assay type: in vivo, Cyperus difformis; details: scale 0 to 100 (0 no effect, 100 complete control)
Summary of the method: as §1

corn = assay: Test B pre-/postemergence herbicide test; assay type: in vivo, Zea mays
Summary of the method: as §2

morningglory = assay: Test B pre-/postemergence herbicide test; assay type: in vivo, Ipomoea coccinea
Summary of the method: as §4

[4] = 1000 g ai/ha, visual rating, 13 to 15 days
[5] = Postemergence, 250 g ai/ha, scale 0 (no effect) to 100 (complete control)
[6] = postemergence, 62 g ai/ha, scale 0 to 100
[7] = 500 g ai/ha, visual rating 0-100, 0 no effect, 100 complete control, preemergence
[8] = Postemergence, 500 g ai/ha, visual rating after 13 to 15 days, scale 0 (no effect) to 100 (complete control)
[9] = postemergence, 125 g ai/ha, visual rating, scale 0 (no effect) to 100 (complete control)
[10] = preemergence, 125 g ai/ha, 0 to 100 scale, 0 is no effect, 100 is complete control
[11] = Postemergence, 500 g ai/ha, scale 0 (no effect) to 100 (complete control)
[12] = postemergence, 125 g ai/ha, scale 0 to 100
[13] = 500 g ai/ha, scale 0 to 100, 0 no effect, 100 complete control, preemergence
[14] = Postemergence, 125 g ai/ha, scale 0 (no effect) to 100 (complete control)
[15] = 125 g ai/ha, 0 is no effect, 100 is complete control, preemergence

CCN(CC)C(=O)c1cccc(NC(=O)c2cn(C(C)(C)C)nc2C(F)(F)F)c1 [Compound 191]
Ducksalad plant response rating (ducksalad; [4]): 20
Crabgrass, Large plant response rating (large crabgrass; [5]): 20
Crabgrass, Large plant response rating (large crabgrass; [6]): 20
Pigweed plant response rating (pigweed; [5]): 70
Pigweed plant response rating (pigweed; [6]): 30
Blackgrass plant response rating (blackgrass; [5]): 10
Blackgrass plant response rating (blackgrass; [6]): 0
Wheat plant response rating (wheat; 250 g ai/ha, scale 0 to 100, 0 no effect, 100 complete control, preemergence): 0
Wheat plant response rating (wheat; [5]): 0
Wheat plant response rating (wheat; [6]): 0
Lambsquarters plant response rating (lambsquarters; [5]): 80
Lambsquarters plant response rating (lambsquarters; [6]): 60
Velvetleaf plant response rating (velvetleaf; [5]): 20
Velvetleaf plant response rating (velvetleaf; [6]): 10
Barnyardgrass plant response rating (barnyardgrass [1]; [4]): 20
Foxtail, Giant plant response rating (giant foxtail; [5]): 20
Foxtail, Giant plant response rating (giant foxtail; [6]): 10
Barnyardgrass plant response rating (barnyardgrass [2]; [5]): 10
Barnyardgrass plant response rating (barnyardgrass [2]; [6]): 0
Oat, Wild plant response rating (wild oat; [5]): 20
Oat, Wild plant response rating (wild oat; [6]): 10
Cocklebur plant response rating (cocklebur; [5]): 10
Cocklebur plant response rating (cocklebur; [6]): 0
Rice plant response rating (rice; [4]): 0
Surinam Grass plant response rating (Surinam grass; [5]): 10
Surinam Grass plant response rating (Surinam grass; [6]): 10
Sedge, Umbrella plant response rating [3, 4]: 90
Corn plant response rating (corn; [5]): 10
Corn plant response rating (corn; [6]): 10
Morningglory plant response rating (morningglory; [5]): 90
Morningglory plant response rating (morningglory; [6]): 40

CCON=C(C)c1cccc(NC(=O)c2cc(C(C)(C)C)nn2C)c1 [Compound 105]
Ducksalad plant response rating (ducksalad; [4]): 70
Plant response rating, Crabgrass, Large (large crabgrass; [7]): 90
Plant response rating, Crabgrass, Large (large crabgrass; [8]): 0
Crabgrass, Large plant response rating (large crabgrass; [9]): 0
Plant response rating, Crabgrass, Large (large crabgrass; [10]): 0
Plant response rating, Pigweed (pigweed; [7]): 80
Plant response rating, Pigweed (pigweed; [8]): 80
Pigweed plant response rating (pigweed; [9]): 0
Plant response rating, Pigweed (pigweed; [10]): 0
Plant response rating, Blackgrass (blackgrass; [8]): 0
Blackgrass plant response rating (blackgrass; [9]): 0
Plant response rating, Wheat (wheat; [8]): 0
Wheat plant response rating (wheat; [9]): 0
Plant response rating, Lambsquarters (lambsquarters; [7]): 80
Plant response rating, Lambsquarters (lambsquarters; [8]): 80
Lambsquarters plant response rating (lambsquarters; [9]): 50
Plant response rating, Lambsquarters (lambsquarters; [10]): 0
Plant response rating, Velvetleaf (velvetleaf; [7]): 0
Plant response rating, Velvetleaf (velvetleaf; [8]): 0
Velvetleaf plant response rating (velvetleaf; [9]): 0
Plant response rating, Velvetleaf (velvetleaf; [10]): 0
Barnyardgrass plant response rating (barnyardgrass [1]; [4]): 20
Plant response rating, Foxtail, Giant (giant foxtail; [7]): 10
Plant response rating, Foxtail, Giant (giant foxtail; [8]): 0
Foxtail, Giant plant response rating (giant foxtail; [9]): 0
Plant response rating, Foxtail, Giant (giant foxtail; [10]): 0
Plant response rating, Barnyardgrass (barnyardgrass [2]; [7]): 30
Plant response rating, Barnyardgrass (barnyardgrass [2]; [8]): 0
Barnyardgrass plant response rating (barnyardgrass [2]; [9]): 0
Plant response rating, Barnyardgrass (barnyardgrass [2]; [10]): 0
Plant response rating, Oat, Wild (wild oat; [8]): 10
Oat, Wild plant response rating (wild oat; [9]): 0
Plant response rating, Cocklebur (cocklebur; [7]): 0
Plant response rating, Cocklebur (cocklebur; [8]): 30
Cocklebur plant response rating (cocklebur; [9]): 30
Plant response rating, Cocklebur (cocklebur; [10]): 0
Rice plant response rating (rice; [4]): 0
Plant response rating, Surinam Grass (Surinam grass; [7]): 10
Plant response rating, Surinam Grass (Surinam grass; [8]): 10
Surinam Grass plant response rating (Surinam grass; [9]): 0
Plant response rating, Surinam Grass (Surinam grass; [10]): 0
Sedge, Umbrella plant response rating [3, 4]: 70
Plant response rating, Corn (corn; [7]): 0
Plant response rating, Corn (corn; [8]): 0
Corn plant response rating (corn; [9]): 0
Plant response rating, Corn (corn; [10]): 0
Plant response rating, Morningglory (morningglory; [7]): 10
Plant response rating, Morningglory (morningglory; [8]): 10
Morningglory plant response rating (morningglory; [9]): 0
Plant response rating, Morningglory (morningglory; [10]): 0

C=CCNC(=O)c1ccc(F)c(N(C(C)=O)C(=O)c2cc(C(C)(C)C)nn2CC)c1 [Compound 443]
Ducksalad plant response rating (ducksalad; 125 g ai/ha): 70
Crabgrass, Large plant response rating (large crabgrass; [11]): 30
Crabgrass, Large plant response rating (large crabgrass; [12]): 20
Pigweed plant response rating (pigweed; [11]): 80
Pigweed plant response rating (pigweed; [12]): 60
Blackgrass plant response rating (blackgrass; [11]): 40
Blackgrass plant response rating (blackgrass; [12]): 30
Wheat plant response rating (wheat; [13]): 100
Wheat plant response rating (wheat; [11]): 50
Wheat plant response rating (wheat; [12]): 40
Lambsquarters plant response rating (lambsquarters; [11]): 80
Lambsquarters plant response rating (lambsquarters; [12]): 70
Velvetleaf plant response rating (velvetleaf; [11]): 50
Velvetleaf plant response rating (velvetleaf; [12]): 50
Barnyardgrass plant response rating (barnyardgrass [1]; 125 g ai/ha): 80
Foxtail, Giant plant response rating (giant foxtail; [11]): 40
Foxtail, Giant plant response rating (giant foxtail; [12]): 30
Barnyardgrass plant response rating (barnyardgrass [2]; [14]): 20
Barnyardgrass plant response rating (barnyardgrass [2]; [11]): 30
Oat, Wild plant response rating (wild oat; [11]): 60
Oat, Wild plant response rating (wild oat; [12]): 40
Cocklebur plant response rating (cocklebur; [11]): 80
Cocklebur plant response rating (cocklebur; [12]): 50
Rice plant response rating (rice; 125 g ai/ha): 70
Surinam Grass plant response rating (Surinam grass; [11]): 20
Surinam Grass plant response rating (Surinam grass; [12]): 20
Sedge, Umbrella plant response rating ([3]; 125 g ai/ha): 80
Corn plant response rating (corn; [11]): 20
Corn plant response rating (corn; [12]): 20
Morningglory plant response rating (morningglory; [11]): 60
Morningglory plant response rating (morningglory; [12]): 50

CCOC(=O)c1cccc(NC(=O)c2nn(C(C)(C)C)nc2Br)c1 [Compound 432]
Ducksalad plant response rating (ducksalad; 125 g ai/ha): 30
Plant response rating (0 to 100 scale), Crabgrass, Large (large crabgrass; [15]): 30
Crabgrass, Large plant response rating (large crabgrass; [11]): 30
Crabgrass, Large plant response rating (large crabgrass; [12]): 10
Plant response rating (0 to 100 scale), Pigweed (pigweed; [15]): 0
Pigweed plant response rating (pigweed; [11]): 10
Pigweed plant response rating (pigweed; [12]): 0
Blackgrass plant response rating (blackgrass; [11]): 40
Blackgrass plant response rating (blackgrass; [12]): 40
Wheat plant response rating (wheat; [13]): 0
Wheat plant response rating (wheat; [11]): 60
Wheat plant response rating (wheat; [12]): 50
Plant response rating (0 to 100 scale), Lambsquarters (lambsquarters; [15]): 0
Lambsquarters plant response rating (lambsquarters; [11]): 30
Lambsquarters plant response rating (lambsquarters; [12]): 0
Plant response rating (0 to 100 scale), Velvetleaf (velvetleaf; [15]): 0
Velvetleaf plant response rating (velvetleaf; [11]): 60
Velvetleaf plant response rating (velvetleaf; [12]): 50
Barnyardgrass plant response rating (barnyardgrass [1]; 125 g ai/ha): 30
Plant response rating (0 to 100 scale), Foxtail, Giant (giant foxtail; [15]): 40
Foxtail, Giant plant response rating (giant foxtail; [11]): 40
Foxtail, Giant plant response rating (giant foxtail; [12]): 0
Plant response rating (0 to 100 scale), Barnyardgrass (barnyardgrass [2]; [15]): 10
Barnyardgrass plant response rating (barnyardgrass [2]; [14]): 20
Barnyardgrass plant response rating (barnyardgrass [2]; [11]): 60
Oat, Wild plant response rating (wild oat; [11]): 60
Oat, Wild plant response rating (wild oat; [12]): 50
Plant response rating (0 to 100 scale), Cocklebur (cocklebur; [15]): 0
Cocklebur plant response rating (cocklebur; [11]): 70
Cocklebur plant response rating (cocklebur; [12]): 40
Rice plant response rating (rice; 125 g ai/ha): 0
Plant response rating (0 to 100 scale), Surinam Grass (Surinam grass; [15]): 10
Surinam Grass plant response rating (Surinam grass; [11]): 70
Surinam Grass plant response rating (Surinam grass; [12]): 10
Sedge, Umbrella plant response rating ([3]; 125 g ai/ha): 80
Plant response rating (0 to 100 scale), Corn (corn; [15]): 0
Corn plant response rating (corn; [11]): 30
Corn plant response rating (corn; [12]): 30
Plant response rating (0 to 100 scale), Morningglory (morningglory; [15]): 0
Morningglory plant response rating (morningglory; [11]): 30
Morningglory plant response rating (morningglory; [12]): 20
